Results on 54 molecules are retold here after the OPERA property sets (Mansouri et al. 2018).

The melting point is the temperature of the solid-liquid transition. Take `Nc1ccc(Sc2ccc([N+](=O)[O-])cc2)cc1`: the melting point came out at 144 °C.
For orientation: boiling point means the temperature at which the vapour pressure of the liquid equals the pressure above it. Turning to `CCCCCCCCN`, the boiling point amounted to 180 °C, the log10 vapour pressure (mmHg) is -0.0137 and the melting point was 0 °C.
With `CCNC(=O)Nc1ncc([N+](=O)[O-])s1`, the melting point stood at 228 °C.
Regarding `Cc1c([N+](=O)[O-])c(C)c([N+](=O)[O-])c(C(C)(C)C)c1[N+](=O)[O-]`, the melting point was 110 °C and the ready biodegradability result was “not readily biodegradable”.
`C#C[C@]1(O)CC[C@H]2[C@@H]3CCC4=CC(=O)CC[C@@H]4[C@H]3CC[C@@]21CC` had a melting point of 223 °C.
`CCOC(=O)C(CC)(CC)C(=O)OCC` gave a boiling point of 230 °C.
Take `c1ccc([As](c2ccccc2)c2ccccc2)cc1`: the boiling point was 360 °C, the log10 vapour pressure (mmHg) was -4.3 and the melting point was 61 °C.
As to `C=C(Br)CBr`, the boiling point amounted to 141 °C and the log10 vapour pressure (mmHg) is 0.88.
Take `O=C1c2ccccc2C(=O)c2ccccc21`: the boiling point was determined as 377 °C, the log10 Koc (L/kg) stood at 3.57, the log10 vapour pressure (mmHg) is -6.94 and the melting point came out at 286 °C. Besides, the ready biodegradability result is given as “readily biodegradable”.
`CCCCC(C)C(C)CC` (stereo not given) returned a boiling point of 163 °C.
Regarding `OCC1OC(O)C(O)C(O)C1O` (stereo not given), the ready biodegradability result is recorded as “readily biodegradable”.
Still for that read-out and setting: then `CC(c1ccccc1)c1ccc(O)cc1` (stereo not given), with “not readily biodegradable”.
`CCC(C)=C(C)C`: the boiling point was found to be 97.5 °C, the log10 vapour pressure (mmHg) turned out to be 1.7 and the melting point is -118 °C.
Turning to `COC(C)CCO` (stereo not given), the boiling point was 157 °C and the ready biodegradability result was “readily biodegradable”.
Consider `CC(C)(C)c1nnc(NS(=O)(=O)c2ccc(N)cc2)s1`, for which the melting point is 222 °C.
In turn, `CCC(=O)OCc1ccco1` returned a boiling point of 195 °C.
`Brc1ccc2c(c1)Oc1ccccc1O2` returned a log10 vapour pressure (mmHg) of -4.52 and a melting point of 90 °C.
In the case of `COC(=O)C1(S(=O)(=O)c2ccc(C)cc2)CC1`, the melting point came out at 97.2 °C.
The same measure, in the same setting: for `CC1(C)OC(=O)CC1CC(=O)O` (stereo not given) the value was 90 °C; for `C[C@H]1CC[C@]2(NC1)O[C@H]1C[C@H]3[C@@H]4CC[C@H]5C[C@@H](O)CC[C@]5(C)[C@H]4CC[C@]3(C)[C@H]1[C@@H]2C`, 210 °C.
As for `CCOc1cc(C=O)ccc1O`, the boiling point stood at 294 °C, the log10 vapour pressure (mmHg) is -4.98, the melting point is 77.5 °C and the ready biodegradability result is “readily biodegradable”.
Turning to `CC1=CCCC(C)(C)C1/C=C/C(C)=C/C=C/C(C)=C/C=C/C=C(C)/C=C/C=C(C)/C=C/C1=C(C)CCCC1(C)C` (stereo not given), the melting point came to 188 °C.
`CCCCCCCCCCl` came in with a boiling point of 204 °C, a log10 vapour pressure (mmHg) of -0.574 and a melting point of -39.4 °C.
For `CCOc1ccc2nc(S(N)(=O)=O)sc2c1`, the melting point was determined as 189 °C.
In the case of `CC(=O)Oc1ccc(C)cc1C`, the boiling point is 226 °C.
`O=[N+]([O-])c1cc([N+](=O)[O-])c(Cl)c(C(F)(F)F)c1` displayed a melting point of 63 °C.
Molecule `O=C(O)COc1ccc(Cl)cc1CO` returned a log10 vapour pressure (mmHg) of -6.18 and a melting point of 141 °C.
Turning to `CCCCC(=O)CCCC`, the boiling point was 188 °C, the log10 vapour pressure (mmHg) was -0.258 and the melting point was -3.8 °C.
For the molecule `O=C1C=CC(=O)C1`, the melting point worked out at 37 °C.
Consider `CCCCCCCCCCCC(C)O` (stereo not given), for which the melting point came to 23 °C.
Same read-out and setting: then `C/C=C/c1cc2c(c(=O)o1)C(=O)[C@@H](O)[C@H](C)O2`, with 222 °C.
On to `c1cncnc1`, for which the boiling point stood at 124 °C, the melting point came out at 22 °C and the ready biodegradability entry was “not readily biodegradable”.
As to `CC1(C)OC(=O)NC1=O`, the melting point was 76.5 °C.
`O=Nc1ccccc1` returned a melting point of 68.5 °C.
`CC(C)OC(=O)C(O)(c1ccc(Br)cc1)c1ccc(Br)cc1` had a log10 vapour pressure (mmHg) of -7.09 and a melting point of 77 °C.
Molecule `CCCCCCCCCCCCCCCCCC(=O)Oc1ccccc1` displayed a melting point of 52 °C.
On the same count and under the same terms, for `O=Cc1ccc(O)cc1O` the value was 135 °C.
For `O=NN(c1ccccc1)c1ccccc1`, the log10 Koc (L/kg) turned out to be 3.08, the melting point was found to be 66.5 °C and the ready biodegradability entry is recorded as “readily biodegradable”.
`NS(=O)(=O)c1cc2c(cc1Cl)NC(CSCC(F)(F)F)NS2(=O)=O` (stereo not given) came in with a melting point of 206 °C.
Regarding `CC(C)=CCCC(C)O` (stereo not given), the boiling point worked out at 175 °C.
For the molecule `c1ccc(-c2cccc(-c3ccccn3)n2)nc1`, the melting point was 90 °C.
For `ClCC(Cl)(Cl)CCl`, the boiling point was determined as 165 °C, the log10 vapour pressure (mmHg) was determined as 0.484 and the ready biodegradability result is “not readily biodegradable”.
`CCOc1ccccc1F` displayed a boiling point of 171 °C and a melting point of -16.7 °C.
Molecule `O=CCc1ccccc1` had a boiling point of 195 °C, a log10 vapour pressure (mmHg) of -0.407 and a melting point of 33.5 °C.
`C/C=C(\C)c1ccccc1` came in with a melting point of -23.5 °C.
Same read-out and setting: for `NC(=O)c1c(F)cccc1F` the value was 146 °C.
`C=CCc1cc(C)ccc1O` registered a boiling point of 237 °C.
In the case of `CCCC(=O)c1ccc(Cl)cc1`, the melting point was 19.5 °C.
As for `CC(C)C(=O)C(C)C`, the boiling point was 125 °C, the log10 vapour pressure (mmHg) stood at 1.13 and the melting point was -69 °C.
For `Cc1cccc(N)c1N` the same measures were 255 °C, -3.26 and 63.5 °C.
As for `CC=C(CC)C(=O)NC(N)=O`, the melting point was 198 °C.
`C=Cc1ccccc1C`: the boiling point stood at 170 °C, the log10 vapour pressure (mmHg) came out at 0.268 and the melting point is -68.5 °C.
Molecule `BrCC(Br)Br` came in with a boiling point of 189 °C and a melting point of -29.3 °C.
Consider `CN(C)CCCN`, for which the boiling point worked out at 133 °C, the log10 vapour pressure (mmHg) was determined as 1 and the melting point was -60 °C.
